The target of one assay is EGFR L858R (Homo sapiens (Human), UniProt P00533, L858R). The assay can be described thus: Biochemical EGFR inhibition assay, EGFR L858R. The note with it: Caliper mobility shift; 1.0 mM ATP or ATP Km; read-out: Enz EGFR_L858R IC50. The method, then:
(§1) Reactions proceeded until between 10% to 20% total peptides were phosphorylated at room temperature (25° C.) and were terminated with 35 mM 2,2′,2″,2″-(ethane-1,2-diyldinitrilo)tetraacetic acid (EDTA). Product was detected using the Caliper mobility shift detection method where the phosphorylated peptide (product) and substrate were electrophoretically separated and measured. Percent activity was plotted against log concentration of compound and points to generate an apparent IC50.

Assay [1] concerns the target pEGFR (Tyr1068) in PC-9 cells (Ex19Del) (Homo sapiens (Human), UniProt P00533, DEL746-750). Kind of assay: PC-9 pEGFR AlphaLISA assay. The class given is cell-based. The note with it: 4 hours incubation, p-EGFR (Tyr1068) AlphaLISA, read-out: Ext pEGFR_PC-9 Ex19Del IC50. As to the method: PC-9/A431 pEGFR AlphaLISA Assays
Inhibitory effects of compounds were evaluated in cellular assays that measure level of intracellular phosphorylation of EGFR in PC-9 (ECACC, #90071810, Milipore/Sigma) and A431 cell lines (ATCC, CRL-1555) using AlphaLISA sureFire ultra p-EGFR (Tyr1068) assay kit (PerkinElmer, ALSU-PEGFR-A50K). PC-9 cells were seeded at 3.125×10^5 cells/ml in 40 μL phenol-free DMEM supplemented with 10% FBS per well of a 384 well plate (Corning, 3764), while A431 were seeded at 3.125×10^5 cells/ml in 40 μL in phenol-free DMEM with 0.5% FBS. Cells were allowed to adhere overnight at 37° C./5% CO2. On the next day, compounds were transferred at 4-fold, 10-point serial dilution from compound source plate to cell plates using liquid handler Echo550 and were incubated at 37° C./5% CO2 for 4 hours. A431 cells were stimulated prior harvesting for 10 min with EGF at final concentration of 30 ng/ml in the incubator. Medium was removed from the plates and cells were lysed with 10 μL of 1× AlphaLISA lysis buffer (supplemented with 1× protease/phosphatase inhibitor cocktail) followed by shaking at 600 rpm for 30 minutes at room temperature. Lysates were transferred to Optiplate (Apricot designs) and 5 μl of 1× acceptor bead mix (prepared just before use) was added to each well followed by incubation at room temperature for 1.5-2 h in dark. Then 5 μL of freshly-made donor bead mix is added to each well under subdued lighting or green filters, was mixed well on the shaker and the plate was sealed and left for an overnight incubation at room temperature in dark. On the next day, the plate was read the Envision using standard AlphaLisa settings. Percent of pEGFR inhibition was plotted against log concentration of compounds to generate IC50 values.
In general terms: Alpha assays give light when donor and acceptor beads are brought close together.

In another assay the target is EGFR (d746-750) (Homo sapiens (Human), UniProt P00533, DEL746-750). Kind of assay: Biochemical EGFR inhibition assay, EGFR (d746-750). Particulars: Caliper mobility shift; 1.0 mM ATP or ATP Km; read-out: Enz EGFR_Exon19-del746-750 IC50. The method, then:
as §1

Counter-ions that a name gives are not always drawn.

For orientation: IC50 means the concentration at which inhibition is half-maximal. For the molecule “7-ethoxy-6-(2-methyl-2H-indazol-4-yl)-4-(1-methyl-3-phenyl-1H-pyrazol-4-yl)pyrido[3,2-d]pyrimidine [Example 156]”, the IC50 worked out at 3.2 nM on EGFR L858R and 2.4 nM in assay [1]. For the molecule “7-methoxy-6-(2-methyl-2H-indazol-4-yl)-4-(1-methyl-3-phenyl-1H-pyrazol-4-yl)pyrido[3,2-d]pyrimidine [Example 155]”, the results for the half-inhibitory concentration (IC50) (at EGFR L858R; on EGFR (d746-750); in assay [1]) were 7.3 nM, 2 nM and 5.1 nM, respectively. For `CCn1cc(-c2ncnc3cc(OC)c(NC(=O)[C@@]45COC[C@@H]4C5)cc23)c(-c2ccccc2F)n1` (mixture of isomers) [Example 262, (1R,5R)—N-(4-(1-ethyl-3-(2-fluorophenyl)-1H-pyrazol-4-yl)-7-methoxyquinazolin-6-yl)-3-oxabicyclo[3.1.0]hexane-1-carboxamide and (1S,5S)—N-(4-(1-ethyl-3-(2-fluorophenyl)-1H-pyrazol-4-yl)-7-methoxyquinazolin-6-yl)-3-oxabicyclo[3.1.0]hexane-1-carboxamide], the results for the IC50 (on EGFR L858R; on EGFR (d746-750); in assay [1]) were 1.1 nM, 0.6 nM and 1.1 nM, respectively. For the molecule `CCn1cc(-c2ncnc3cc(OC)c(NC(=O)[C@]45COC[C@H]4C5)cc23)c(-c2ccccc2F)n1` (mixture of isomers) [Example 263, (1S,5S)—N-(4-(1-ethyl-3-(2-fluorophenyl)-1H-pyrazol-4-yl)-7-methoxyquinazolin-6-yl)-3-oxabicyclo[3.1.0]hexane-1-carboxamide and (1R,5R)—N-(4-(1-ethyl-3-(2-fluorophenyl)-1H-pyrazol-4-yl)-7-methoxyquinazolin-6-yl)-3-oxabicyclo[3.1.0]hexane-1-carboxamide], the IC50 is 1.7 nM at EGFR L858R, 0.7 nM at EGFR (d746-750) and 2.7 nM in assay [1].

Take `COc1cc2ncnc(-c3cn(C)nc3-c3ccccc3)c2cc1OC(=O)N1CCN(C)[C@H]2C[C@H]21` (racemic) [Example 82, Cis-rac-7-methoxy-4-(1-methyl-3-phenyl-1H-pyrazol-4-yl)quinazolin-6-yl (1R,6S)-5-methyl-2,5-diazabicyclo[4.1.0]heptane-2-carboxylate]: the IC50 stood at 5.3 nM at EGFR L858R, 3.3 nM on EGFR (d746-750) and 3.9 nM in assay [1].

On to `COc1cc2ncnc(-c3cn(C)nc3-c3ccccc3)c2cc1NC(=O)[C@@H]1CCN1C` (single isomer, unassigned) [Example 252, (S)—N-(7-methoxy-4-(1-methyl-3-phenyl-1H-pyrazol-4-yl)quinazolin-6-yl)-1-methylazetidine-2-carboxamide or (R)—N-(7-methoxy-4-(1-methyl-3-phenyl-1H-pyrazol-4-yl)quinazolin-6-yl)-1-methylazetidine-2-carboxamide], for which, in assay [1], the concentration for half-maximal inhibition (IC50) was 3.2 nM. Turning to `COc1cc2ncnc(-c3cn(C)nc3-c3c(F)cccc3F)c2nc1NC(=O)[C@@]12C[C@@H]1CN(C)C2` (single isomer, unassigned) [Example 412, (1S,5S)—N-(4-(3-(2,6-difluorophenyl)-1-methyl-1H-pyrazol-4-yl)-7-methoxypyrido[3,2-d]pyrimidin-6-yl)-3-methyl-3-azabicyclo[3.1.0]hexane-1-carboxamide or (1R,5R)—N-(4-(3-(2,6-difluorophenyl)-1-methyl-1H-pyrazol-4-yl)-7-methoxypyrido[3,2-d]pyrimidin-6-yl)-3-methyl-3-azabicyclo[3.1.0]hexane-1-carboxamide], the IC50 on EGFR L858R was determined as 26 nM; in assay [1], 6.7 nM. With `COc1cc2ncnc(-c3cn(C)nc3-c3c(F)cccc3F)c2nc1NC(=O)[C@]12C[C@H]1CN(C)C2` (single isomer, unassigned) [Example 413, (1R,5R)—N-(4-(3-(2,6-difluorophenyl)-1-methyl-1H-pyrazol-4-yl)-7-methoxypyrido[3,2-d]pyrimidin-6-yl)-3-methyl-3-azabicyclo[3.1.0]hexane-1-carboxamide or (1S,5S)—N-(4-(3-(2,6-difluorophenyl)-1-methyl-1H-pyrazol-4-yl)-7-methoxypyrido[3,2-d]pyrimidin-6-yl)-3-methyl-3-azabicyclo[3.1.0]hexane-1-carboxamide], the IC50 at EGFR L858R worked out at 10 nM; in assay [1], 23.2 nM. In the case of `COc1cc2ncnc(-c3cn(C)nc3-c3ccccc3)c2cc1-c1ccnc(N2CCNCC2)c1` [Example 139, 7-methoxy-4-(1-methyl-3-phenyl-1H-pyrazol-4-yl)-6-(2-(piperazin-1-yl)pyridin-4-yl)quinazoline formate], the IC50 in assay [1] came out at 5.1 nM.

In the case of `COc1cc2ncnc(-c3cn(C)nc3-c3ccccc3)c2cc1-c1ccc2c(=O)[nH]ccc2c1` [Example 144, 6-(7-methoxy-4-(1-methyl-3-phenyl-1H-pyrazol-4-yl)quinazolin-6-yl)isoquinolin-1(2H)-one], the IC50 in assay [1] amounted to 8.3 nM.

For `COc1cc2ncnc(-c3cn(C)nc3-c3ccccc3)c2cc1-c1ccc2n[nH]cc2c1C` [Example 145, 7-methoxy-6-(4-methyl-2H-indazol-5-yl)-4-(1-methyl-3-phenyl-1H-pyrazol-4-yl)quinazoline], the IC50 in assay [1] came to 5.9 nM. Regarding `COc1cc2ncnc(-c3cn(C)nc3-c3ccccc3)c2cc1-c1cc2c[nH]nc2cc1C` [Example 146, 7-methoxy-6-(6-methyl-2H-indazol-5-yl)-4-(1-methyl-3-phenyl-1H-pyrazol-4-yl)quinazoline], the IC50 at EGFR L858R came out at 8.2 nM. `COc1cc2ncnc(-c3cn(C)nc3-c3ccccc3)c2cc1-c1cc2c[nH]nc2cc1C` [Example 147, 7-methoxy-6-(6-methyl-2H-indazol-5-yl)-4-(1-methyl-3-phenyl-1H-pyrazol-4-yl)quinazoline]: at EGFR L858R, the IC50 was determined as 13.7 nM. With `COc1cc2ncnc(-c3cn(C)nc3-c3ccccc3)c2cc1NC(=O)C1CCN1C` (stereo not drawn) [Example 251, N-(7-methoxy-4-(1-methyl-3-phenyl-1H-pyrazol-4-yl)quinazolin-6-yl)-1-methylazetidine-2-carboxamide], the IC50 in assay [1] turned out to be 3.5 nM. Same read-out and setting: in the case of `COc1cc2ncnc(-c3cn(C)nc3-c3ccccc3)c2cc1NC(=O)[C@@]12C[C@@H]1CN(C)C2` [Example 336, (1S,5S)—N-(7-methoxy-4-(1-methyl-3-phenyl-1H-pyrazol-4-yl)quinazolin-6-yl)-3-methyl-3-azabicyclo[3.1.0]hexane-1-carboxamide] it was 4 nM. Take `COc1cc2ncnc(-c3cn(C)nc3-c3ccccc3)c2cc1NC(=O)[C@]12C[C@H]1CN(C)C2` [Example 337, (1R,5R)—N-(7-methoxy-4-(1-methyl-3-phenyl-1H-pyrazol-4-yl)quinazolin-6-yl)-3-methyl-3-azabicyclo[3.1.0]hexane-1-carboxamide]: the IC50 in assay [1] came out at 5.9 nM. In the case of `COc1cc2ncnc(-c3cn(C)nc3-c3ccccc3)c2cc1NC(=O)C12C3C4C1C1C2C3C41NC(=O)OC(C)(C)C` (stereo not drawn) [Example 343, tert-butyl (4-((7-methoxy-4-(1-methyl-3-phenyl-1H-pyrazol-4-yl)quinazolin-6-yl)carbamoyl)cuban-1-yl)carbamate], in assay [1], the IC50 turned out to be 4.5 nM. For `Cn1cc(-c2ccc3c(-c4c[nH]nc4-c4cccc(Cl)c4)ncnc3c2)cn1` [Example 440, 4-(3-(3-chlorophenyl)-1H-pyrazol-4-yl)-7-(1-methyl-1H-pyrazol-4-yl)quinazoline], the IC50 came out at 0.9 nM at EGFR L858R and 1.1 nM in assay [1]. `CCC(=O)Nc1cc2c(-c3cn(C)nc3-c3ccccc3)ncnc2cc1-c1ccncn1` [Example 448, N-(4-(1-methyl-3-phenyl-1H-pyrazol-4-yl)-7-(pyrimidin-4-yl)quinazolin-6-yl)propionamide]: in assay [1], the IC50 was determined as 6.5 nM. Take `CN1CC[C@@H](Oc2cc3c(-c4cn(C)nc4-c4ccccc4)ncnc3cc2OC2CC2)[C@H](F)C1` [Example 476, 7-cyclopropoxy-6-(((3R,4R)-3-fluoro-1-methylpiperidin-4-yl)oxy)-4-(1-methyl-3-phenyl-1H-pyrazol-4-yl)quinazoline]: the IC50 on EGFR L858R is 5.4 nM; on EGFR (d746-750), 1.3 nM.

Source of the values: patent US20250236608A1, “EGFR INHIBITORS” (Blueprint Medicines Corporation, priority 2022, published 2025).
